Source: PMC3702004, “Comparison of Intake and Systemic Relative Effect Potencies of Dioxin-like Compounds in Female Mice after a Single Oral Dose” (Environmental Health Perspectives, 2013)
Where two headings read alike, the source gives them in different places.

Assays:
[1] = Compound analysis: liver, adipose and plasma concentrations 3 days after a single oral dose; type: in vivo, female C57BL/6 mice; conditions: for liver:adipose ratio (hepatic sequestration criterion 0.3) / concentration at 3 days / Adipose % dose / g tissue / Adipose concentration / Liver % dose / g tissue / Liver concentration / Plasma % dose / g tissue / Plasma concentration: 3 days after single oral dose; for liver:adipose ratio (hepatic sequestration criterion 0.3): Table 1 doses; for Liver:adipose ratio: based on ng/g tissue, day 3; for concentration at 3 days: female, C57BL/6, mouse, in vivo, po
Method: (§1) Animals. Eight-week-old female C57BL/6 mice (Harlan laboratories, Venray, the Netherlands) were randomly assigned to treatment groups (six animals per group) and allowed to acclimate for 1.5 weeks. The animals were housed in groups in standard cages and conditions (23 ± 2°C, 50–60% relative humidity, 12-hr dark/light cycle) with free access to food and water. Mice received a single dose of test compound by oral gavage at a dosing volume of 10 mL/kg body weight (BW). Mice treated with corn oil vehicle (10 mL/kg BW) served as controls. For each congener, five different doses were administered, ranging from 0.5–100 μg/kg BW (TCDD) to 5,000–500,000 µg/kg BW (PCB-153). Detailed information on doses is provided in Supplemental Material, Table S1 (http://dx.doi.org/10.1289/ehp.1206336). On day 3 after dosing, animals were euthanized by CO2/O2 asphyxiation, and blood was immediately collected from the abdominal aorta. The liver, thymus, spleen, and adipose tissue were removed, weighed (liver, thymus, and spleen), snap frozen, and stored at –80°C. All animal treatments were performed with permission of the Animal Ethical Committee (DEC Utrecht) and performed according to the [Law on Animal Experiments (1977)]. Animals were treated humanely and with regard for alleviation of suffering.
(§2) Compound analysis. Adipose and liver tissues samples were homogenized in Na2SO4, followed by extraction and clean-up in one step, and then eluted with 200 mL 1:1 hexane:dichloromethane on an open column packed with 40% wt/wt H2SO4-impregnated silica and KOH-silica. Blood plasma samples were extracted on an open column using Chem-Elut (Agilent Technologies, Santa Clara, CA, USA) and then NaCl eluted with 75 mL 3:2 hexane:2-propanol. Clean-up was performed using a miniaturized silica column (as described above), and samples were eluted using 30 mL hexane. Because the samples typically contained high levels of the analytes, only a small fraction was evaporated and analyzed. Prior to evaporation, we spiked a fraction of the samples with ^13C-labeled standards. We checked potential loss of analytes during extraction and clean-up by reextracting the samples using the identical protocol used for the samples. […] Tetradecane was added prior to evaporation. Sample analysis followed the U.S. Environmental Protection Agency Method 1613 ([U.S. Environmental Protection Agency 1994]) using single ion monitoring mode on an Agilent 6809N gas chromatograph (Agilent Technologies) coupled with a Micromass Ultima Autospec Ultra high-resolution mass spectrometer (HRMS; Waters Corp., Milford, MA, USA). Compounds were separated on a 60 m × 0.25 mm DB5-MS column ([…]; J&W Scientific, Folsom, CA, USA). The HRMS was operated with electron impact ionization with electron energy of 35 eV and an ion source temperature of 250°C. To reduce the number of analyses, samples were pooled before clean-up. […] This method was used because full congener–specific separation could be achieved on the high-resolution GC–HRMS. For lipid determination, samples were evaporated to dryness after the extraction step, and the amount of lipids was determined gravimetrically. Concentrations were calculated based on lipid weight and wet weight. The analysis of samples for the PCB-118 5,000 μg/kg BW dose failed during the procedure; thus analysis for this group could not be completed.
Plasma and PBL isolation. Blood from two mice was pooled (total volume of approximately 1.4 mL); plasma and PBLs were then isolated using Ficoll Paque gradient (GE Healthcare Europe, Diegem, Belgium). Plasma samples were stored at –80°C until compound analysis. Isolated lymphocytes were lysed with RLT buffer (QIAGEN, Venlo, the Netherlands) as described in the QIAGEN RNAeasy kit protocol and stored at –80°C until use.

[2] = toxic equivalency factor relative to TCDD; ref Van den Berg et al. 2006; cited from earlier work
[3] = Body and organ weight, hepatic lipid content; type: in vivo, female C57BL/6 mice; conditions: day 3; for % lipid / g liver: pooled liver samples
Method: as §1, §2
Statistical analysis. Statistical significant differences of the means and variances were determined using one-way analysis of variance (ANOVA) followed by Tukey-Kramer multiple comparisons. Differences were considered statistically significant at p < 0.05. Statistical calculations were performed using GraphPad 6.01 (GraphPad Software Inc.).

Clc1cc2c(cc1Cl)Oc1cc(Cl)c(Cl)cc1O2 [TCDD, 2,3,7,8-tetrachlorodibenzodioxin, reference compound]
liver:adipose ratio (hepatic sequestration criterion 0.3) [1]: > 0.3 | Liver:adipose ratio ([1]; dose 0.5 μg/kg BW): 1.8±0.2 | Liver:adipose ratio ([1]; dose 2.5 μg/kg BW): 2.9±0.5 | Liver:adipose ratio ([1]; dose 10 μg/kg BW): 4.2±0.7 | concentration at 3 days ([1]; 0.5 µg/kg bw, oral dose 0.5 µg/kg bw, read-out: Adipose concentration): 1.8 ± 0.4 ng/g | concentration at 3 days ([1]; 0.5 µg/kg bw, oral dose 0.5 µg/kg bw, read-out: Liver concentration): 3.3 ± 0.6 ng/g | concentration at 3 days ([1]; 2.5 µg/kg bw, oral dose 2.5 µg/kg bw, read-out: Adipose concentration): 6.9 ± 1.5 ng/g | concentration at 3 days ([1]; 2.5 µg/kg bw, oral dose 2.5 µg/kg bw, read-out: Liver concentration): 20 ± 6 ng/g | concentration at 3 days ([1]; 10 µg/kg bw, oral dose 10 µg/kg bw, read-out: Adipose concentration): 21 ± 3 ng/g | concentration at 3 days ([1]; 10 µg/kg bw, oral dose 10 µg/kg bw, read-out: Liver concentration): 85 ± 13 ng/g | concentration at 3 days ([1]; 10 µg/kg bw, oral dose 10 µg/kg bw, read-out: Plasma concentration): 0.053 ng/g | concentration at 3 days ([1]; 25 µg/kg bw, oral dose 25 µg/kg bw, read-out: Plasma concentration): 0.108 ng/g | concentration at 3 days ([1]; 100 µg/kg bw, oral dose 100 µg/kg bw, read-out: Plasma concentration): 0.432 ng/g | Adipose % dose / g tissue ([1]; oral dose 0.5 µg/kg bw): 18 % dose / g tissue | Adipose concentration ([1]; oral dose 0.5 µg/kg bw): 2.1 ± 0.5 ng/g lipid | Liver % dose / g tissue ([1]; oral dose 0.5 µg/kg bw): 33 % dose / g tissue | Liver concentration ([1]; oral dose 0.5 µg/kg bw): 62 ± 12 ng/g lipid | Plasma % dose / g tissue ([1]; oral dose 0.5 µg/kg bw): 0.040 % dose / g tissue | Adipose % dose / g tissue ([1]; oral dose 2.5 µg/kg bw): 14 % dose / g tissue | Adipose concentration ([1]; oral dose 2.5 µg/kg bw): 7.6 ± 1.7 ng/g lipid | Liver % dose / g tissue ([1]; oral dose 2.5 µg/kg bw): 40 % dose / g tissue | Liver concentration ([1]; oral dose 2.5 µg/kg bw): 277 ± 83 ng/g lipid | Plasma % dose / g tissue ([1]; oral dose 2.5 µg/kg bw): 0.027 % dose / g tissue | Adipose % dose / g tissue ([1]; oral dose 10 µg/kg bw): 10 % dose / g tissue | Adipose concentration ([1]; oral dose 10 µg/kg bw): 24 ± 4 ng/g lipid | Liver % dose / g tissue ([1]; oral dose 10 µg/kg bw): 43 % dose / g tissue | Liver concentration ([1]; oral dose 10 µg/kg bw): 1152 ± 176 ng/g lipid | Plasma % dose / g tissue ([1]; oral dose 10 µg/kg bw): 0.027 % dose / g tissue | Plasma concentration ([1]; oral dose 10 µg/kg bw): 35 ± 6 ng/g lipid | Plasma % dose / g tissue ([1]; oral dose 25 µg/kg bw): 0.022 % dose / g tissue | Plasma concentration ([1]; oral dose 25 µg/kg bw): 60 ± 3 ng/g lipid | Plasma % dose / g tissue ([1]; oral dose 100 µg/kg bw): 0.022 % dose / g tissue | Plasma concentration ([1]; oral dose 100 µg/kg bw): 240 ± 30 ng/g lipid | WHO-TEF [2]: 1 | Body weight ([3]; oral dose 0.5 µg/kg bw): 19.3 ± 0.8 gram | Liver weight ([3]; oral dose 0.5 µg/kg bw): 5.08 ± 0.27 % of bw | Spleen weight ([3]; oral dose 0.5 µg/kg bw): 0.34 ± 0.05 % of bw | Thymus weight ([3]; oral dose 0.5 µg/kg bw): 0.28 ± 0.06 % of bw | % lipid / g liver ([3]; oral dose 0.5 µg/kg bw): 5.3% | Body weight ([3]; oral dose 2.5 µg/kg bw): 19.2 ± 1.3 gram | Liver weight ([3]; oral dose 2.5 µg/kg bw): 5.37 ± 0.20 % of bw | Spleen weight ([3]; oral dose 2.5 µg/kg bw): 0.32 ± 0.05 % of bw | Thymus weight ([3]; oral dose 2.5 µg/kg bw): 0.23 ± 0.05 % of bw | % lipid / g liver ([3]; oral dose 2.5 µg/kg bw): 7.2% | Body weight ([3]; oral dose 10 µg/kg bw): 18.8 ± 1.1 gram | Liver weight ([3]; oral dose 10 µg/kg bw): 5.49 ± 0.37 % of bw | Spleen weight ([3]; oral dose 10 µg/kg bw): 0.30 ± 0.04 % of bw | Thymus weight ([3]; oral dose 10 µg/kg bw): 0.18 ± 0.06 % of bw | % lipid / g liver ([3]; oral dose 10 µg/kg bw): 7.4% | Body weight ([3]; oral dose 25 µg/kg bw): 19.6 ± 0.8 gram | Liver weight ([3]; oral dose 25 µg/kg bw): 5.86 ± 0.22 % of bw | Spleen weight ([3]; oral dose 25 µg/kg bw): 0.34 ± 0.02 % of bw | Thymus weight ([3]; oral dose 25 µg/kg bw): 0.23 ± 0.02 % of bw | Body weight ([3]; oral dose 100 µg/kg bw): 19.4 ± 0.6 gram | Liver weight ([3]; oral dose 100 µg/kg bw): 6.09 ± 0.44 % of bw | Spleen weight ([3]; oral dose 100 µg/kg bw): 0.34 ± 0.02 % of bw | Thymus weight ([3]; oral dose 100 µg/kg bw): 0.19 ± 0.04 % of bw | Dose with significant increase in liver weight vs vehicle controls ([3]; single oral dose): ≥ 10 µg/kg BW | Dose with statistically significant decrease in relative thymus weight vs vehicle controls ([3]; single oral dose): ≥ 2.5 μg/kg BW

Clc1ccc(-c2cc(Cl)c(Cl)c(Cl)c2)cc1Cl [PCB-126, 3,3´,4,4´,5-pentachlorobiphenyl]
liver:adipose ratio (hepatic sequestration criterion 0.3) [1]: > 0.3 | Liver:adipose ratio ([1]; dose 5 μg/kg BW): 3.2±0.3 | Liver:adipose ratio ([1]; dose 25 μg/kg BW): 5.9±0.9 | Liver:adipose ratio ([1]; dose 100 μg/kg BW): 9.1±0.9 | Adipose % dose / g tissue ([1]; oral dose 5 µg/kg bw): 12 % dose / g tissue | Liver % dose / g tissue ([1]; oral dose 5 µg/kg bw): 38 % dose / g tissue | Plasma % dose / g tissue ([1]; oral dose 5 µg/kg bw): 0.035 % dose / g tissue | Adipose % dose / g tissue ([1]; oral dose 25 µg/kg bw): 11 % dose / g tissue | Liver % dose / g tissue ([1]; oral dose 25 µg/kg bw): 65 % dose / g tissue | Plasma % dose / g tissue ([1]; oral dose 25 µg/kg bw): 0.018 % dose / g tissue | Adipose % dose / g tissue ([1]; oral dose 100 µg/kg bw): 5.5 % dose / g tissue | Liver % dose / g tissue ([1]; oral dose 100 µg/kg bw): 51 % dose / g tissue | Plasma % dose / g tissue ([1]; oral dose 100 µg/kg bw): 0.012 % dose / g tissue | Plasma % dose / g tissue ([1]; oral dose 250 µg/kg bw): 0.013 % dose / g tissue | Plasma % dose / g tissue ([1]; oral dose 1000 µg/kg bw): 0.014 % dose / g tissue | WHO-TEF [2]: 0.1 | Body weight ([3]; oral dose 5 µg/kg bw): 19.3 ± 0.9 gram | Liver weight ([3]; oral dose 5 µg/kg bw): 4.97 ± 0.38 % of bw | Spleen weight ([3]; oral dose 5 µg/kg bw): 0.33 ± 0.04 % of bw | Thymus weight ([3]; oral dose 5 µg/kg bw): 0.27 ± 0.06 % of bw | % lipid / g liver ([3]; oral dose 5 µg/kg bw): 3.4% | Body weight ([3]; oral dose 25 µg/kg bw): 18.9 ± 1.4 gram | Liver weight ([3]; oral dose 25 µg/kg bw): 4.96 ± 0.35 % of bw | Spleen weight ([3]; oral dose 25 µg/kg bw): 0.33 ± 0.06 % of bw | Thymus weight ([3]; oral dose 25 µg/kg bw): 0.29 ± 0.05 % of bw | % lipid / g liver ([3]; oral dose 25 µg/kg bw): 3.7% | Body weight ([3]; oral dose 100 µg/kg bw): 19.5 ± 0.7 gram | Liver weight ([3]; oral dose 100 µg/kg bw): 5.07 ± 0.19 % of bw | Spleen weight ([3]; oral dose 100 µg/kg bw): 0.31 ± 0.04 % of bw | Thymus weight ([3]; oral dose 100 µg/kg bw): 0.25 ± 0.06 % of bw | % lipid / g liver ([3]; oral dose 100 µg/kg bw): 4.4% | Body weight ([3]; oral dose 250 µg/kg bw): 19.3 ± 1.3 gram | Liver weight ([3]; oral dose 250 µg/kg bw): 5.43 ± 0.19 % of bw | Spleen weight ([3]; oral dose 250 µg/kg bw): 0.32 ± 0.02 % of bw | Thymus weight ([3]; oral dose 250 µg/kg bw): 0.26 ± 0.04 % of bw | Body weight ([3]; oral dose 1000 µg/kg bw): 18.8 ± 0.9 gram | Liver weight ([3]; oral dose 1000 µg/kg bw): 5.64 ± 0.20 % of bw | Spleen weight ([3]; oral dose 1000 µg/kg bw): 0.39 ± 0.16 % of bw | Thymus weight ([3]; oral dose 1000 µg/kg bw): 0.27 ± 0.04 % of bw | Dose with significant increase in liver weight vs vehicle controls ([3]; single oral dose): ≥ 1,000 µg/kg BW
